Measured values reported in patent US9035133B2, “Herbicide-resistant sunflower plants and methods of use” (priority 2006, dated 2015).

Key:
Type in all cases: in vivo, Helianthus annuus
[1] = tested on: MUT31 sunflower plants; assay: Greenhouse factorial experiment, herbicide damage score (imazamox with or without malathion); conditions: 7 days after spraying
Method: (§1) FIG. 1 is a graphical representation of the results of a 2×3×2 factorial experiment to the test the effects of sunflower genotype (RHA266 or MUT31), herbicide dose (0, 0.25X, and, 0.50X; where X=50 g a.i./ha imazamox), and malathion (0 or 1000 g a.i./ha). The sunflower plants were at the 3-4 leaf growth stage at time of malathion and herbicide spraying. Malathion was sprayed on the plants 30 minutes prior to the imazamox spraying. The sunflower plants were evaluated at 7 days after herbicide spraying to determine damage scores. Additional details are provided below in Example 3.
(§2) To evaluate the detoxification ability of MUT31 sunflower plants, an experiment was conducted in the greenhouse. The objective of the experiment was to determine if the imazamox tolerance of MUT31 plants is associated with detoxification mechanism that is mediated by a P450 monooxygenase enzyme (referred to herein as “P450 enzyme”). […] Thus, plants comprising enhanced herbicide tolerance that is due to an altered P450 enzyme are expected to become less tolerant or susceptible to the herbicide when malthion is applied to the plants before they are treated with the herbicide.
(§3) A factorial experiment with three factors: genotypes (MUT31 and RHA266), herbicide dose (Control, 0.25X , and 0.50X; where X=50 g ai/ha imazamox) and malathion (with or without malathion) was arranged in a randomized split-split plot block design. Imazamox (SWEEPER) was sprayed at the 3-4 leaf growth stage. The P450 inhibitor malathion was sprayed at a rate of 1000 g ai/ha 30 minutes prior to herbicide spraying.

[2] = tested on: RHA266 sunflower plants; assay: as above; conditions: 7 days after spraying
Method: as §1, §2, §3

[3] = tested on: sunflower Entry 1, IMI Restorer, A205V homo; assay: Field trial, phytotoxicity rating (% crop injury); conditions: 21 DAT
Method: (§4) A field trial was conducted to compare the herbicide tolerance of sunflower hybrids carrying the MUT31 trait and the A205V mutation in a sunflower AHASL gene (A205V/A205V). A sunflower AHASL gene with the A205V mutation encodes a AHASL protein which has a valine at amino acid that corresponds to amino acid position 205 in the Arabidopsis thaliana AHASL protein. The amino acid at the same position in a wild-type sunflower AHASL protein is alanine. In the amino acid sequence of the sunflower AHASL protein, this alanine-to-valine amino acid substitution is at amino acid position 190. By convention, the sites of amino acid substitutions that are known to give rise to herbicide resistance in plant AHASL proteins are typically referred to by the position of the substitution in the amino acid sequence of the Arabidopsis AHASL protein.
(§5) Seed from each entry was produced under optimum seed production conditions in South America in 2005/2006. The field trial was conducted at one location in North Dakota, USA in 2006. The entries were organized in a randomized complete block using a split plot design consisting of 3 replications for each treatment combination. Factor A was the herbicide treatment, and factor B was the sunflower entry. The plot size was 4 rows×12 ft and the seeding rate was consistent with local agronomic practices. The spray volume was 10 gallons per acre (GPA) (or 100 liters/ha) for a backpack sprayer or 20 GPA (or 200 liters/ha) for a tractor mounted boom. The herbicide treatments were applied at the 2-4 leaf growth stage.
(§6) Phytotoxicity ratings were assessed at 7 days and 21 days following herbicide application. Phytotoxicity was recorded as the amount of plant damage (in percent), where a rating of ‘0’ indicated no damage to the plants in the plot relative to the untreated plot. A rating of ‘100’ indicated complete necrosis (death) of the plants in the plot relative to the untreated plot.
(§7) The data was subjected to an ANOVA analysis and the means from the 3 repetitions are presented in Table 8 (phytotoxicity at 21 days post-treatment).

[4] = tested on: sunflower Entry 2, IMI cms × IMI restorer, A205V homo; assay: Field trial, phytotoxicity rating (% crop injury); conditions: 21 DAT
Method: as §4, §5, §6, §7

[5] = tested on: sunflower Entry 3, WT × IMI restorer, A205V hetero; assay: Field trial, phytotoxicity rating (% crop injury); conditions: 50 g ai/ha imazamox + 0.25% (v/v) NIS, 21 DAT
Method: as §4, §5, §6, §7

[6] = tested on: sunflower Entry 5, A837 cms × IMI restorer, A205V hetero; assay: Field trial, phytotoxicity rating (% crop injury); conditions: 50 g ai/ha imazamox + 0.25% (v/v) NIS, 21 DAT
Method: as §4, §5, §6, §7

[7] = tested on: sunflower Entry 6, IMI cms × MUT31 restorer, A205V/MUT31 hetero; assay: Field trial, phytotoxicity rating (% crop injury); conditions: 21 DAT
Method: as §4, §5, §6, §7

[8] = tested on: sunflower Entry 8, MUT31 Restorer, MUT31 homo; assay: Field trial, phytotoxicity rating (% crop injury); conditions: 21 DAT
Method: as §4, §5, §6, §7

[9] = tested on: MUT31; assay: Previous studies (data not shown), crop injury
[10] = 0.25× imazamox (X=50 g ai/ha), malathion 1000 g ai/ha 30 minutes prior
[11] = 0.25× imazamox (X=50 g ai/ha), no malathion
[12] = 0.50× imazamox (X=50 g ai/ha), malathion 1000 g ai/ha 30 minutes prior
[13] = 0.50× imazamox (X=50 g ai/ha), no malathion
[14] = 100 g ai/ha imazamox + 0.25% (v/v) NIS
[15] = 160 g ai/ha imazapyr + 0.25% (v/v) NIS
[16] = herbicide dose 0× (control), malathion 1000 g ai/ha alone
[17] = herbicide dose 0× (control), malathion 1000 g ai/ha alone, listed as Malathion

COCc1cnc(C2=NC(C)(C(C)C)C(=O)N2)c(C(=O)O)c1 (stereo not drawn) [imazamox]
Mean Herbicide Damage Score [1, 10]: 30.35%
Mean Herbicide Damage Score [1, 11]: 9.50%
Mean Herbicide Damage Score [1, 12]: 40.31%
Mean Herbicide Damage Score [1, 13]: 20.13%
Mean Herbicide Damage Score [2, 10]: 45.30%
Mean Herbicide Damage Score [2, 11]: 27.95%
Mean Herbicide Damage Score [2, 12]: 45.50%
Mean Herbicide Damage Score [2, 13]: 42.35%
Phytotoxicity Rating (% Crop Injury) [3, 14]: 6.67%
Phytotoxicity Rating (% Crop Injury) [4, 14]: 3.33%
Phytotoxicity Rating (% Crop Injury) [5]: 6.67%
Phytotoxicity Rating (% Crop Injury) [6]: 3.33%
Phytotoxicity Rating (% Crop Injury) ([7]; 50 g ai/ha imazamox + 0.25% (v/v) NIS): 1.67%
Phytotoxicity Rating (% Crop Injury) ([7]; 200 g ai/ha imazamox + 0.25% (v/v) NIS): 43%
Phytotoxicity Rating (% Crop Injury) ([8]; 37.5 g ai/ha imazamox + 0.25% (v/v) NIS): 47%
crop injury ([9]; 75 g ai of imazamox per hectare): 100%

CC(C)C1(C)N=C(c2ncccc2C(=O)O)NC1=O (stereo not drawn) [imazapyr]
Phytotoxicity Rating (% Crop Injury) [3, 15]: 6.67%
Phytotoxicity Rating (% Crop Injury) [4, 15]: 3.33%
Phytotoxicity Rating (% Crop Injury) ([8]; 80 g ai/ha imazapyr + 0.25% (v/v) NIS): 88.33%
crop injury ([9]; 100 g ai of imazapyr per hectare): 100%

CCOC(=O)CC(SP(=S)(OC)OC)C(=O)OCC (stereo not drawn) [malathion, diethyl-dimethoxythiophosphorylthio-succinate]
Mean Herbicide Damage Score [1, 16]: no effect
Mean Herbicide Damage Score [1, 17]: 0.00%
Mean Herbicide Damage Score [2, 16]: no effect
Mean Herbicide Damage Score [2, 17]: 0.00%
